Source: patent US6930118B2, “3-Oxadiazol-5-yl-1-aminoalkyl-1h-indole derivatives” (Amrad Operations Pty. Ltd., priority 2001, dated 2005)
pIC50: −log10 of the molar value.

Experiments:
CB1 receptor = target: T1, CB1 receptor (Rattus norvegicus, UniProt P20272); test: Radioligand binding assay, rat cerebellum membranes
T1 construct: the cerebellum was dissected away from the rest of the brain, weighed and homogenised; from tissue; host or cells: Sprague Dawley rat cerebellum membranes
Description: (§1) The affinity of compounds at cannabinoid receptors is routinely assessed using ligand binding assays known to those skilled in the art. Radioligand binding assays were conducted using rat cerebellum or rat spleen. The cerebellum of the rat is known to express predominantly, if not exclusively, the CB1 receptor subtype (20,21). Thus, binding constants obtained from these studies are characterised by a single affinity value, as only one receptor type is labelled. […] In contrast, biphasic binding curves in the spleen characterised by two affinity constants represent the profile of compounds showing selectivity for one receptor subtype over another. In order to determine the order of selectivity, the high and low affinity values obtained for these compounds in the spleen binding assays were compared to the single affinity estimates obtained for the cerebellum (CB1) assays.
Sprague Dawley rats of either sex (200-300 g) were killed by gassing with 80% CO2 in O2 and decapitation, and the entire brain excised rapidly and placed in ice-cold Tris-HCl buffer (Tris 50 mM, MgCl2 3 mM, EGTA 0.2 mM, pH to 7.4 with HCl). On ice, the cerebellum was dissected away from the rest of the brain, weighed and homogenised (PT-DA 1205/2EC Polytron Aggregate; Kinematica, Luzernerstrasse Switzland) in 10 volumes of ice-cold Tris-HCl buffer. The homogenate was then made up to 20 volumes and centrifuged (Model J2-M1, Beckman, Fullerton, Calif., U.S.A.) at […] for 15 min at 4° C.). Subsequently, the supernatant was discarded, the pellet resuspended in 20 volumes of buffer and centrifuged as before. The resulting pellet was then resuspended in 20 volumes of buffer and assayed for protein content using the method of Bradford (Bradford, 1976) in a Novaspec II spectrophotometer (Pharmacia Biotech; with bovine serum albumin (BSA; Hömosafe BSA, c/o ‘ScimaR’ Templestowe, Australia) as the standard. The homogenate was then recentrifuged and the final pellet resuspended in Tris-HCl buffer at a protein concentration of 5 mg/ml and stored in 500 μl aliquots at −80° C. until used in the binding assay.
(§2) Ligand binding assays were performed in polypropylene tubes in a total volume of 1 ml containing Tris-HCl buffer, a final concentration of 1 mg/ml BSA, and varying concentrations of drugs. Tubes contained 30 μg of membrane protein and incubation was started by the addition of 100 μl of either 0.5 nM [^3H]SR141716A or 0.2 nM [^3H]WIN 55,212-2. Experiments were carried out in triplicate at 30° C. for 90 min with non-specific binding being defined as radioligand binding in the presence of 1 μM unlabelled WIN 55,212-2. Incubations were terminated by rapid filtration with a M-24 Cell Harvester (Brandel; Gaithersburg, Md., U.S.A.) using ice-cold Tris-HCl buffer containing 0.5 mg/ml BSA. Filters (Wattman GF/B) were soaked for 2 h prior to filtering in a solution of Tris-HCl buffer containing 3 mg/ml BSA and 0.5% w/w polyethyleneimine (PEI). Filters were left to dry thoroughly before placement into scintillation vials with 5 ml of scintillation cocktail (Ultima Gold LSC-cocktail; Packard Bioscience, Meriden, Conn., U.S.A.) being added. Vials were left to stand overnight before the radioactivity was determined using a Model 1409 DSA Liquid Scintillation counter (EG&E Wallac, Gaithersburg, Md., U.S.A.).
(§3) The resulting radioligand binding curves were analyzed by nonlinear regression using the program PRISM 3.0 (GraphPad Software, San Diego, Calif.) in order to derive ligand affinity estimates for the cannabinoid receptor(s).

CB2 receptor = target: T2, CB2 receptor (Rattus norvegicus, UniProt Q9QZN9); test: Radioligand binding assay, rat spleen membranes
T2 sequence (Q9QZN9 1-343 limits assumed): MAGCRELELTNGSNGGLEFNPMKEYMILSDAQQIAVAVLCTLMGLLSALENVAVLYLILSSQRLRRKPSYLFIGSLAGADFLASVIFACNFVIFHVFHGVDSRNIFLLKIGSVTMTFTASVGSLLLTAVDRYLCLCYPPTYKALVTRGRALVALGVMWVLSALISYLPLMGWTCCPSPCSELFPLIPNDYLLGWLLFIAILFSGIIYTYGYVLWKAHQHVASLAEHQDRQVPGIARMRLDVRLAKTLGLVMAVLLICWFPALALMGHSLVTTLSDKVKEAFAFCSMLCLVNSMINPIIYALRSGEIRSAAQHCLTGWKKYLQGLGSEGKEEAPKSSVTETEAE
Description: as §1
Sprague Dawley rats (200-300 g) were killed by gassing with 80% CO2 in O2 and decapitation and the spleen excised rapidly and placed in ice-cold Tris-HCl buffer (Tris 50 mM, MgCl2 3 mM, EGTA 0.2 mM, pH 7.4). The spleen was weighed and diced using a scalpel before homogenisation in 10 volumes of Tris-HCl buffer. The homogenate was then made up to 20 volumes and centrifuged (12,600 g, 5 min, 4° C.), the supernatant was retained and centrifuged (23,800 g, 20 min, 4° C.). The pellet was resuspended in 10 volumes of buffer and assayed for protein content using the method of Bradford (Bradford, 1976) with BSA as the standard. The homogenate was then recentrifuged and the final pellet resuspended in Tris-HCl buffer at a protein concentration of 5 mg/ml and stored in 500 μl aliquots at −80° C. until used for the binding assay.
as §2, §3

T1 sequence (P20272 whole entry): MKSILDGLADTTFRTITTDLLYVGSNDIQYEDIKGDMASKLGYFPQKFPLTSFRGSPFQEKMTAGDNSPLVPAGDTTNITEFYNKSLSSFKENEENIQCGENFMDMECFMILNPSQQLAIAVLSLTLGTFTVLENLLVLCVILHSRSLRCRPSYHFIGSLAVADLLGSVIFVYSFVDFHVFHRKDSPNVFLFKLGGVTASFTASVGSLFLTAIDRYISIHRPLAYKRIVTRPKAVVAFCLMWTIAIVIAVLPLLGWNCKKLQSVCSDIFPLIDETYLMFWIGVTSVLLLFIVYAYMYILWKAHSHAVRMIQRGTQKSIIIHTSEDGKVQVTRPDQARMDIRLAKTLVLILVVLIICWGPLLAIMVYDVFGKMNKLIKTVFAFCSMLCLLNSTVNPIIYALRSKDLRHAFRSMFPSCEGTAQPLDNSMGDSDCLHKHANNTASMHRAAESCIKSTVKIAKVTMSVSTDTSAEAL

Compound: c1ccc(Cc2noc(-c3cn(CCN4CCCC4)c4ccccc34)n2)cc1 [Compound 1, 3-(3-Benzyl-[1,2,4]-oxadiazol-5-yl)-1-[2-(pyrrolidin-1-yl)ethyl]-1H-indole]
- pIC50 (CB1 receptor): 7.30
- pIC50 (CB2 receptor): 5.80
